Where a name gives a salt, the structure may show the parent alone. Read-outs that look alike come from different tables or passages of the source.

A short description of assay [1]: Radical scavenging, glucose oxidase/luminol luminescence. The assay is classed as biochemical. Conditions: concentration reducing luminescence/radical by 50%; mean ± SD, three independent experiments. The procedure:
A. Measurement of Radical Scavenging
A mixture comprising glucose oxidase (GO), luminol, sodium selenite [IV] ([…]) and cobalt [II] (Co^+2) all in Hank's Balance Salt Solution (HBSS) was used (Ginsburg et al, 2004). The production of H2O2 produces a burst of luminescence within 30-60 sec, which lasts for 7-10 min. The luminescence involves oxidation of SEL+5 to it SEL+6 and also the generation of oxidants, which are catalyzed by Co^+2. This method mimics infection and inflammation conditions in which there is an accumulation of several oxidant species. This method provides a source of several radicals. Reduction in luminescence by the compounds is due to their ability to sequester radicals and was measured after addition of several concentrations of each compound. The concentration of each compound that reduced the luminescence by 50% was calculated.

Assay [2] can be described thus: Radical scavenging, Sin1. In kind it is biochemical. Conditions: mean ± SD, three independent experiments.
Assay [3] deals with T1, AChE (UniProt P23795).
T1 sequence (P23795 1-613): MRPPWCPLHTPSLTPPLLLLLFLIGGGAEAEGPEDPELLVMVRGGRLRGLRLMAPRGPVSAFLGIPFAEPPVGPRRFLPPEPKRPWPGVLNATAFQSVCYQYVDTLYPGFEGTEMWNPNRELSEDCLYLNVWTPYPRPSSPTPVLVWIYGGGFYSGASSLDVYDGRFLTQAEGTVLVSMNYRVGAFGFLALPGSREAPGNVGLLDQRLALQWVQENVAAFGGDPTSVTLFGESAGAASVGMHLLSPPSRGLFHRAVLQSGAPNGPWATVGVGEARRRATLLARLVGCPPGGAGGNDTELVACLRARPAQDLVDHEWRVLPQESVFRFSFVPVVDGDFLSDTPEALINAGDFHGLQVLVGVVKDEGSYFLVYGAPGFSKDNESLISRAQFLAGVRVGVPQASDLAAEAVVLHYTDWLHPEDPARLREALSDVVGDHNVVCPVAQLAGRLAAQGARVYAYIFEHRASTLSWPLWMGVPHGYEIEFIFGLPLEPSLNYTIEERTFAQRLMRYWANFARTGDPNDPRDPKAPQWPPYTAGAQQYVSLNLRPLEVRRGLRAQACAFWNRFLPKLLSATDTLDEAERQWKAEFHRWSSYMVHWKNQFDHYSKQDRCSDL
In kind it is biochemical, human or bovine erythrocytes. How it is done:
(§1) B. Measurement of Acetylcholinesterase (AChE) and Butylcholinesterase (BuChE) Inhibition In Vitro
(§2) The enzyme was incubated at 37° C. with 6-10 concentrations of the compounds tested and samples were collected at 15, 30, 60 and 120 min Aliquots were transferred to an Elisa multiscan microplate reader (Labsystems) at 15-60 sec time intervals for the determination of residual AChE activity, with Ascent PC software. […] The % inhibition of AChE by each concentration was calculated by comparison with the activity of the enzyme in the absence of drug. […] BuChE-inhibitory activity was determined as described above using BuChE (Sigma Israel) with butylthiocholine iodide (BuTh) 0.075M as a substrate.

The target of assay [4] is T2, BuChE (UniProt P81908).
T2 construct: 120 min incubation; BuChE IC50
The assay is classed as biochemical, human or equine serum. The procedure:
as §1, §2

Assay [5] relates to TNF-α, BV2 mouse microglial cells. Nature of the assay: TNF-α reduction in LPS-stimulated BV2 microglia. The assay is classed as cell-based. Conditions: for Reduction in TNF-α levels, BV2 Microglia range: concentration range, None = no reduction up till 100 nM. The procedure:
The BV2 mouse microglial cells were created by infecting primary mouse microglia with v-raf/v-myc oncogen-carrying retrovirus and donated by Dr. Sigal Fleisher—Berkovich (Ben-Gurion University of the Negev). The cells were cultured in RPMI 1640 containing 0.4 mM L-Glutamine, 10% FCS, 100 units/ml penicillin, 100 μg/ml streptomycin and maintained in a humidified incubator at 37° C. with 5% CO2. For measurement of the effect of compounds on the release of NO the cells were seeded in a density of 80,000 cells/ml and confluence of about 60%, and incubated with test compounds (in the absence of FCS) for […] All the medium was removed and fresh medium containing FCS and LPS (10 μg/ml) added and the cells maintained at 37° C. for 24 h. The release of NO into the medium was determined by measurement of nitrite levels using Griess reagent reaction. For measurement of protein levels of cytokines cells were seeded in a density of 80,000 and incubated with test compounds (in the absence of FCS) and then with LPS as described above. The medium was centrifuged and supernatants collected after 6 h for TNF-α (Biolegend) and after 20 h for IL-6 (Biolegend).

Assay [6] deals with TNF-α, RAW 264.7 cells. Nature of the assay: TNF-α reduction in LPS-stimulated RAW 264.7 macrophages. The assay is classed as cell-based, mouse.
Assay [7] relates to ChE (AChE, BuChE) in plasma, muscle, spleen, brain. Conditions: after ip and or oral administration in mice.
Experimental: E. Acetylcholinesterase (AChE) and Butylcholinesterase (BuChE) Inhibition Ex Vivo
Compounds of the invention or saline were administrated by intraperitoneal (ip) injection or gavage to groups of 6-7 male ICR or Balb C mice (5-6 weeks of age). The mice were sacrificed 15, 30, 60 or 120 min after drug administration and the brain (minus cerebellum), spleen, and muscle were rapidly removed, weighed and put on ice. Blood was also collected in heparinised tubes, centrifuged at 14000 rpm at room temperature for 4 mM to provide plasma. Phosphate buffer pH 7 was added to each tissue to produce concentrations of 1 mg/mL for brain and spleen and 8 mg/mL for muscle. The tissues were homogenised in cold phosphate buffer pH 7 containing 0.1% Triton and centrifuged at 14000 rpm. Aliquots of plasma and the supernatant of all tissues were incubated with AcTh or BuTh and DTNB in phosphate buffer pH 7 and the rate of development of the yellow colour was measured as described above. Enzyme activity was measured for each time and drug concentration and percent inhibition of the AChE or BuChE activity was calculated by comparison with that of control mice injected with saline. Results are represented as p moles acetylthiocholine or butythiocholine hydrolysed/min/gm tissue.
Assay [8] deals with NO, RAW 264.7 cells. Nature of the assay: NO reduction in LPS-stimulated RAW 264.7 macrophages. The assay is classed as cell-based, mouse.
Setting [9] is: Table 3, 120 min incubation, read-out: IC50 AChE 120 min.
Setting [10] is: read-out: IC50 BuChE 120 min; Table 3; 120 min incubation.
[11] abbreviates: Mus musculus, RAW264.7, 6 h, read-out: Reduction in TNF-α levels, RAW Macrophages % peak reduction.
Setting [12] is: concentration range; None = no reduction up till 100 nM.
[13] abbreviates: Table 2, 120 min incubation, read-out: IC50 AChE 120′.
Setting [14] is: Mus musculus, RAW264.7, 24 h, read-out: Reduction in NO levels, RAW Macrophages % peak reduction.

On to `CCN(C)C(=O)Oc1ccc2c(c1)NCC2CCC(=O)OC` (centres unmarked) [AN-680, 3-(2-(Methoxycarbonyl)ethyl)-1-indoline-6-yl ethylmethylcarbamate hydrochloride], for which the IC50 (commonly the point on the concentration scale where inhibition reaches its midpoint) in assay [1] turned out to be 1.45 ± 0.05 µM; in assay [2], 2.36 ± 0.05 µM; in assay [3] (setting [9]), 55.2 µM; in assay [4] (setting [10]) it was 3.9 µM. For the same molecule, in assay [5], the “Reduction in TNF-α levels, BV2 Microglia range” value (“Reduction … BV2 Microglia range” below) is on record as “None”. The Emax in assay [6] (setting [11]) amounted to 34.5 ± 1.6%.
In the case of `CCN(C)C(=O)Oc1ccc2c(c1)NCC2CCC(=O)OC.O=C(O)CC(O)(CC(=O)O)C(=O)O` (centres unmarked) [AN-878, 6-(Ethyl(methyl)carbamoyloxy)-3-(3-methoxy-3-oxopropyl)indolinium citrate], the “ChE inhibition in plasma, muscle, and spleen” value in assay [7] was “inhibited ChE”.
In assay [1], `COC(=O)CCC1CNc2cc(O)ccc21` (centres unmarked) [AN-682, Methyl 3-(6-hydroxyindolin-3-yl)propanoate hydrochloride] showed an IC50 of 1.34 ± 0.01 µM. Also, in assay [2], inhibition was half-maximal at 2.33 ± 0.08 µM (IC50). In assay [5], the “Reduction in TNF-α levels, BV2 Microglia % peak reduction” value turned out to be 17.6 ± 1.3% and the “Reduction … BV2 Microglia range” value was 10^−2-100 nM. Further, the Emax in assay [6] (Mus musculus, RAW264.7, 6 h; read-out: Reduction in TNF-α levels, RAW Macrophages % peak reduction) was found to be 55 ± 1.3%. The “Reduction in TNF-α levels, RAW Macrophages range” value in assay [6] (setting [12]) was 10^−1-100 nM.
On to `CCOC(=O)CCC1CNc2cccc(OC(=O)N(C)CC)c21.O=C(O)CC(O)(CC(=O)O)C(=O)O` (centres unmarked) [AN-871, Ethyl 3-(4-(ethyl(methyl)carbamoyloxy)indolinium citrate], for which the IC50 in assay [3] (setting [9]) stood at 40.2 µM; in assay [4] (setting [10]) it was 0.56 µM.
Take `CN(C)C(=O)Oc1cccc2c1CCN2C` [AN-619, Dimethyl-carbamic acid 1-methyl-2,3-dihydro-1H-indol-4-yl ester]: the IC50 in assay [3] (setting [13]) worked out at 3.5 µM.
Take `O=C(O)CCC1CNc2cc(O)ccc21` (centres unmarked) [AN-848, 3-(6-Hydroxyindolin-3-yl) propanoic acid hydrochloride]: the IC50 in assay [1] is 2.34 ± 0.02 µM; in assay [2], 3.07 ± 0.66 µM.
Consider `COC(=O)CCc1c[nH]c2cc(OC(=O)N(C)c3ccc(OC)cc3)ccc12` [compound 683, Methyl 3-(6-((4-methoxyphenyl)(methyl)carbamoyloxy)-1H-indol-3-yl)propanoate], for which the IC50 in assay [3] (setting [13]) was > 800 µM.
As for `CCN(C)C(=O)Oc1ccc2c(CCCN)c[nH]c2c1.Cl` [AN-911, 3-(6-((Ethyl(methyl)carbamoyl)oxy)-1H-indol-3-yl)propan-1-aminium chloride], the IC50 in assay [3] (read-out: IC50 AChE 120 min) is 24 µM; in assay [4] (setting [10]), 0.1 µM. For the same molecule, in assay [8] (setting [14]), the Emax was 66.6 ± 1.9%. In addition, the “Reduction in NO levels by at >20%, RAW Macrophages range” value in assay [8] (setting [12]) is 10^−2-100 nM.
As for `CCN(C)C(=O)Oc1cccc2c1c(CCC(=O)OC)cn2C` [AN-629, Methyl 3-(4-((ethyl(methyl)carbamoyl)oxy)-1-methyl-1H-indol-3-yl) propanoate], in assay [3] (setting [13]), the IC50 was 180 µM.
On the same count and under the same terms, under `CCN(C)C(=O)Oc1ccc2c(c1)C(CCC(=O)OC)CN2` (centres unmarked) [AN-669, 3-(2-(Methoxycarbonyl)ethyl) indolin-5-yl ethylmethylcarbamate] stands 660 µM.
For `CN(C)C(=O)Oc1cccc2ccn(C)c12` [AN-621, Dimethyl-carbamic acid 1-methyl-1H-indol-7-yl ester], the IC50 in assay [3] is 0.33 µM; in assay [3] (setting [13]), 0.3 µM.
`COC(=O)CCC1CN(C)c2cccc(OC(=O)N(C)c3ccc(OC)cc3)c21` (centres unmarked) [AN-820, 3-(2-(Methoxycarbonyl)ethyl)-1-methylindolin-4-yl 4-methoxyphenylmethyl carbamate hydrochloride]: the IC50 in assay [1] is 15.3 ± 0.01 µM; in assay [3] (setting [9]), 246 µM; in assay [4] (setting [10]), > 600 µM.
On to `CCN(CC)C(=O)Oc1ccc2c(ccn2C)c1` [AN-622, Diethyl-carbamic acid 1-methyl-1H indol-5-yl ester], for which, in assay [3] (read-out: IC50 AChE 120′), the IC50 is > 500 µM.
In the case of `CCN(C)C(=O)Oc1cccc2[nH]cc(CCCN)c12` [AN-910, 3-(4-((Ethyl(methyl)carbamoyl)oxy)-1H-indol-3-yl)propan-1-aminium chloride], the IC50 in assay [4] (setting [10]) was 0.23 µM. Further, the Emax in assay [8] (setting [14]) was 29.3 ± 1.2%.
As for `CCCCN(C)C(=O)Oc1ccc2c(CCC(=O)OC)c[nH]c2c1` [compound 676, 3-(2-(Methoxycarbonyl)ethyl)-1H-indol-6-yl butylmethylcarbamate], the IC50 in assay [3] (setting [13]) came out at 33 µM.
As to `CCN(C)C(=O)Oc1cccc2c1CCN2CCC(=O)OC.Cl` [AN-1243, Methyl 3-(4-((Ethyl(methyl)carbamoyl)oxy)indolin-1-yl)propanoate Hydrochloride], the IC50 came out at 0.3 ± 0.01 µM in assay [1], 8.49 ± 0.003 µM in assay [2] and 0.7 µM in assay [4] (setting [10]). Moreover, in assay [5], the “Reduction in TNF-α levels, BV2 Microglia % peak reduction” value is reported as 18.6 ± 1.0%. The “Reduction … BV2 Microglia range” value in assay [5] came out at 100 nM. In addition, in assay [6] (setting [11]), the Emax stood at 20.3 ± 5.4%.
On to `CCN(C)C(=O)Oc1ccc2c(CCC(=O)OCOC(=O)C(C)(C)C)c[nH]c2c1` [AN-860, (3-(6-(Ethyl(methyl)carbamoyloxy)-1H-indol-3-yl)propanotloxy)methyl pivalate], for which the “ChE inhibition in plasma, muscle, and spleen” value in assay [7] is “inhibited ChE”.
Regarding `CCN(C)C(=O)Oc1cccc2[nH]cc(CCN(C)C)c12` [AN-1252, 3-(2-(Dimethylamino)ethyl)-1H-indol-4-yl ethyl(methyl)carbamate hydrochloride], the IC50 in assay [4] (read-out: IC50 BuChE 120 min) turned out to be 0.11 µM. Further, the Emax in assay [8] (Mus musculus, RAW264.7, 24 h; read-out: Reduction in NO levels, RAW Macrophages % peak reduction) was determined as 36.4 ± 1.8%.
Regarding “Ethyl 3-(5- ((ethyl(methyl)carbamoyl) oxy)-1H- benzo[d]imidazol-1- yl)propanoate hydrochloride Ethyl 3-(6- ((ethyl(methyl)carbamoyl) oxy)-1H- benzo[d]imidazol-1- yl)propanoate hydrochloride [AN-1257]”, in assay [4] (Table 3; 120 min incubation; read-out: IC50 BuChE 120 min), the IC50 came out at 0.11 µM. For the same molecule, the “Reduction in NO levels, RAW Macrophages % peak reduction” value in assay [8] came out at 34.5 ± 1.2%. In assay [8] (setting [12]), the “Reduction in NO levels by at >20%, RAW Macrophages range” value is 10^−2-1000 nM.
Turning to `CCN(C)C(=O)Oc1ccc2c(c1)N(CCC(=O)OC)CC2` [compound 1247, Methyl 3-(6-((Ethyl(methyl)carbamoyl)oxy)indolin-1-yl)propanoate hydrochloride], the IC50 in assay [1] was determined as 0.22 ± 0.04 µM; in assay [2], 2.18 ± 0.17 µM; in assay [4] (setting [10]), 6.8 µM.
Regarding `CCN(CC)C(=O)Oc1ccc2c(c1)CCN2C` [AN-625, Diethyl-carbamic acid 1-methyl-2,3-dihydro-1H indol-5-yl ester], the IC50 in assay [3] (read-out: IC50 AChE 120′) is 50 µM.

The record behind these values is patent US9499484B2, “Indole, indoline derivatives, compositions comprising them and uses thereof” (priority 2012, dated 2016).
